This is an account of results in ChEMBL document CHEMBL3259797, “Radiosyntheses and in vivo evaluation of carbon-11 PET tracers for PDE10A in the brain of rodent and nonhuman primate” (Bioorg Med Chem, 2014).

The test system of data set [1] is Nucleic Acid. The experiment in a line: Ratio of drug level in striatum to cerebellum in cynomolgus monkey at 260 to 370 MBq, iv measured at 80 mins post-injection by microPET analysis. The format is ADME, organism-based, Macaca fascicularis. To be noted: in vivo.
In data set [2] the test system is Blood. Kind of data set: Biodistribution in Sprague-Dawley rat blood at 14.8 to 18.5 MBq, iv measured at 5 mins post-injection by gamma counting analysis. The format is ADME, organism-based. To be noted: in vivo.
Data set [3] has as its system Lung. The experiment in a line: Biodistribution in Sprague-Dawley rat lung at 14.8 to 18.5 MBq, iv measured at 5 mins post-injection by gamma counting analysis. Format: ADME, organism-based. As to conditions: in vivo; call rule not given here.
Data set [4] concerns Cerebellum. The experiment in a line: Biodistribution in Sprague-Dawley rat cerebellum at 14.8 to 18.5 MBq, iv measured at 5 mins post-injection by gamma counting analysis. Format: ADME, organism-based. To be noted: in vivo.
For data set [5], the system named is Brain. Kind of data set: Biodistribution in Sprague-Dawley rat brain at 14.8 to 18.5 MBq, iv measured at 5 mins post-injection by gamma counting analysis. Format: ADME, organism-based. As to conditions: in vivo.
Data set [6] relates to Striatum. The experiment in a line: Biodistribution in Sprague-Dawley rat striatum at 14.8 to 18.5 MBq, iv measured at 30 mins post-injection by gamma counting analysis. To be noted: in vivo, 0.5 h. The format is ADME, organism-based.
Data set [7] concerns Lung. Kind of data set: Biodistribution in Sprague-Dawley rat lung at 14.8 to 18.5 MBq, iv measured at 60 mins post-injection by gamma counting analysis. The format is ADME, organism-based. To be noted: in vivo, 1 h.
Data set [8] relates to Muscle tissue. The experiment in a line: Biodistribution in Sprague-Dawley rat muscle at 14.8 to 18.5 MBq, iv measured at 60 mins post-injection by gamma counting analysis. Format: ADME, organism-based. To be noted: in vivo, 1 h.
Data set [9] has as its system Cerebellum. The experiment in a line: Biodistribution in Sprague-Dawley rat cerebellum at 14.8 to 18.5 MBq, iv measured at 60 mins post-injection by gamma counting analysis. Format: ADME, organism-based. As to conditions: in vivo, 1 h.
Data set [10] deals with Striatum. Kind of data set: Biodistribution in Sprague-Dawley rat striatum at 14.8 to 18.5 MBq, iv measured at 60 mins post-injection by gamma counting analysis. The format is ADME, organism-based. As to conditions: in vivo, 1 h.
Data set [11] has as its system Brain. The experiment in a line: Biodistribution in Sprague-Dawley rat brain at 14.8 to 18.5 MBq, iv measured at 60 mins post-injection by gamma counting analysis. Format: ADME, organism-based. To be noted: in vivo, 1 h.
The subject of data set [12] is Lung. Kind of data set: Biodistribution in Sprague-Dawley rat lung at 14.8 to 18.5 MBq, iv treated with MP-10 for 5 mins prior to compound administration measured at 30 mins post-injection by gamma counting analysis. Format: ADME, organism-based. As to conditions: in vivo, 0.5 h.
Data set [13] concerns Rattus norvegicus. Kind of data set: Biodistribution in Sprague-Dawley rat fat at 14.8 to 18.5 MBq, iv treated with MP-10 for 5 mins prior to compound administration measured at 30 mins post-injection by gamma counting analysis. The format is ADME, organism-based, Adipose tissue. To be noted: in vivo, 0.5 h.
Data set [14] has as its system Nucleic Acid. The experiment in a line: Ratio of drug level in striatum to cerebellum in Sprague-Dawley rat at 14.8 to 18.5 MBq, iv measured at 30 mins post-injection by gamma counting analysis. Format: ADME, organism-based. As to conditions: in vivo, 0.5 h.
The test system of data set [15] is Nucleic Acid. Kind of data set: Ratio of drug level in striatum to cerebellum in Sprague-Dawley rat at 14.8 to 18.5 MBq, iv measured at 60 mins post-injection by gamma counting analysis. Format: ADME, organism-based. To be noted: in vivo, 1 h.
In data set [16] the test system is Frontal cortex. Kind of data set: Biodistribution in cynomolgus monkey frontal cortex at 260 to 370 MBq, iv measured at 20 to 100 mins post-injection by microPET analysis. The format is ADME, organism-based, Macaca fascicularis. To be noted: in vivo.
The nature of data set [17]: Biodistribution in cynomolgus monkey white matter at 260 to 370 MBq, iv measured at 20 to 100 mins post-injection by microPET analysis. The format is ADME, organism-based, Macaca fascicularis. To be noted: in vivo.
Data set [18] in a line: Biodistribution in cynomolgus monkey striatum at 260 to 370 MBq, iv measured at 30 mins post-injection by microPET analysis. The format is ADME, organism-based, Macaca fascicularis. As to conditions: in vivo, 0.5 h.
The subject of data set [19] is Nucleic Acid. The experiment in a line: Ratio of drug level in striatum to cerebellum in cynomolgus monkey at 260 to 370 MBq, iv measured at 30 mins post-injection by microPET analysis. To be noted: in vivo, 0.5 h. Format: ADME, organism-based, Macaca fascicularis.
Data set [20] relates to Plasma. The experiment in a line: Metabolic stability in iv dosed cynomolgus monkey plasma supernatant under deproteinated condition assessed as compound remaining measured at 5 to 60 mins by HPLC analysis. The format is ADME, organism-based, Macaca fascicularis. As to conditions: in vivo.
Data set [21] in a line: Drug metabolism in iv dosed cynomolgus monkey plasma assessed as compound remaining measured at 2 mins post-injection by HPLC analysis. To be noted: read-out: Stability. Format: ADME, organism-based, Macaca fascicularis.
Data set [22] relates to Plasma. The experiment in a line: Drug recovery in iv dosed cynomolgus monkey plasma measured at 30 mins post-injection by HPLC analysis. To be noted: in vivo, 0.5 h. The format is ADME, organism-based, Macaca fascicularis.
Data set [23] is described as follows: Drug recovery in iv dosed cynomolgus monkey arterial blood measured at 60 mins post-injection by HPLC analysis. As to conditions: in vivo, 1 h. Format: ADME, organism-based, Macaca fascicularis.
A short description of data set [24]: Drug recovery in iv dosed cynomolgus monkey arterial blood assessed as radiometabolite level measured at 60 mins post-injection by HPLC analysis. As to conditions: in vivo, 1 h. Format: ADME, organism-based, Macaca fascicularis.
A short description of data set [25]: Drug metabolism in iv dosed cynomolgus monkey plasma measured at 60 mins post-injection by HPLC analysis. Format: ADME, organism-based, Macaca fascicularis. To be noted: read-out: Drug metabolism.
The nature of data set [26]: Biodistribution in cynomolgus monkey striatum at 260 to 370 MBq, iv measured at 25 mins post-injection by microPET analysis. The format is ADME, organism-based, Macaca fascicularis. As to conditions: in vivo.
Data set [27] deals with Nucleic Acid. The experiment in a line: Ratio of drug level in striatum to cerebellum in cynomolgus monkey at 260 to 370 MBq, iv measured at 25 mins post-injection by microPET analysis. The format is ADME, organism-based, Macaca fascicularis. To be noted: in vivo.
The test system of data set [28] is Plasma. Kind of data set: Drug metabolism in iv dosed cynomolgus monkey plasma assessed as compound remaining by HPLC analysis. The format is ADME, organism-based, Macaca fascicularis. As to conditions: in vivo.
A short description of data set [29]: Drug metabolism in iv dosed cynomolgus monkey plasma assessed as compound remaining measured at 30 mins post-injection by HPLC analysis. The format is ADME, organism-based, Macaca fascicularis. To be noted: read-out: Stability.
Data set [30] in a line: Drug metabolism in iv dosed cynomolgus monkey plasma assessed as compound remaining measured at 60 mins post-injection by HPLC analysis. The format is ADME, organism-based, Macaca fascicularis. As to conditions: read-out: Stability.

For `Cn1cc(-c2ccncc2)c(-c2ccc(OCc3nc4ccccc4cc3O[11CH3])cc2)n1`, the Ratio in data set [1] stood at 4.5; in data set [14], 4.6; in [15] it was 6; in data set [19], 3.5. Also, the Drug uptake in data set [2] amounted to 0.679 % ID/g; in [3], 1.602 % ID/g; in [4], 0.229 % ID/g; in [5] it was 0.231 % ID/g; in data set [6] it was 0.452 % ID/g; in data set [7], 0.299 % ID/g. In addition, the Drug uptake in data set [8] worked out at 0.142 % ID/g; in data set [9], 0.064 % ID/g; in [10], 0.38 % ID/g; in [11] it was 0.095 % ID/g; in [12], 0.404 % ID/g; in data set [13] it was 1.353 % ID/g. In addition, the Drug uptake result in data set [16] and in data set [17] was “Active” each time. In addition, the SUV in [18] worked out at 1.8. Moreover, the Stability in data set [20] was determined as 88%. The remaining at 2 min in data set [21] is 97%. In addition, the Drug recovery is given as 82% in data set [22], 65% in data set [23] and 30% in [24].
Consider `Cn1cc(-c2ccncc2)c(-c2ccc(OCc3cc(O[11CH3])c4ccccc4n3)cc2)n1`, for which, in [25], the metabolised at 1 h was found to be 42%. Also, the Drug uptake in [2] worked out at 0.268 % ID/g; in data set [3], 0.89 % ID/g; in data set [4], 0.215 % ID/g; in [5] it was 0.21 % ID/g; in data set [6] it was 0.23 % ID/g; in [7], 0.163 % ID/g. Besides, the Drug uptake in data set [8] amounted to 0.084 % ID/g; in data set [9], 0.046 % ID/g; in [10] it was 0.201 % ID/g; in [11], 0.057 % ID/g; in data set [12], 0.362 % ID/g; in data set [13], 0.697 % ID/g. Moreover, the Drug uptake entry in data set [16], in data set [17] and in data set [26] was “Active” in each case. Moreover, the Ratio in data set [14] was 3.8; in data set [15], 4.5; in [27], 2.7. Further, the Stability is recorded as 88% in data set [20] and 85% in data set [28]. The remaining at 0.5 h in data set [29] was determined as 60%. Also, the remaining at 1 h in data set [30] was found to be 42%.
